# Measurements taken from patent US5464617A, “β-lactam compounds” (Hoffmann-La Roche Inc., priority 1994, dated 1995).
# pIC50: −log10 of the molar value. Counter-ions that a name gives are not always drawn. Like-named read-outs stand apart in the source and are kept apart here.
# What was measured:
# β-lactamase = β-lactamase (Citrobacter freundii, UniProt P05193); experiment: Determination of the β-lactamase inhibiting activity (Test C): inhibition of nitrocefin cleavage by isolated β-lactamase; format: biochemical, Citrobacter freundii 1982; details: pH 7.0, 37° C.
# Protocol: Various β-lactamases can be isolated from penicillin- or cephalosporin-resistant bacterial strains such as Klebsiella pneumoniae NCTC 418, Proteus vulgaris 1028, Bacillus licheniformis 749/C, Escherichia coli SNO1, Pseudomonas aeruginosa 18SH and Citrobacter freundii 1203. For this purpose, the corresponding strains are cultivated in Tryptic Soy Broth (Difco) and harvested by centrifugation in the last logarithmic growth phase (when necessary 50-100 mg/l of ampicillin are added to the medium towards the end of the log-phase in order to induce the β-lactamase). The thus-obtained bacterial mass is treated with 20 mM Tris-HCl buffer (pH 7.0); the cells are broken open with a French press while cooling. The mixture is centrifuged (20,000 r/min.) for 20-30 minutes and a clear crude extract is obtained. The purification of the proteins is effected according to the method of Cartwright, S. J. & Waley, S. G. [Biochem. J. 221, 505-512 (1980)] and, for B. lichenformis, Ellerby, L. M. et al. [Biochemistry 29, 5797-5806 (1990)].
# The determination of the activity of the isolated β-lactamases can be carried out according to the method of O'Callaghan, C. H. et al. [Antimicr. Ag. Chemother. […] The cleavage of the substrate, which is accompanied by a change in colour, is effected at 37° C. and is followed quantitatively at 482 nm using a spectral photometer. […]
# [1] = tested on: Citrobacter freundii 1982; experiment: MIC in vitro of a 1:4 combination of ceftriaxone with a compound of formula I (Test D); format: cell-based; details: 1:4 combination of ceftriaxone with the compound; for MIC C. freundii 1982: Table 2; for MIC C. freundii 1982 (D): Table 4, test D
# Protocol: The minimum inhibitory concentration in vitro ([…]) of a 1:4 combination of ceftriaxone with a compound of formula I against Citrobacter freundii 1982 was measured and compiled in Table 2 hereinafter.
# E. coli 1346 = experiment: Antibacterial activity of the products per se, serial dilution method in liquid medium (Test E); format: cell-based; details: product per se; for MIC E. coli 1346 (E): Table 4, test E; for MIC E. coli 1346: Table 3, liquid medium
# From the text: The antibacterial activity of the products per se is illustrated on the basis of Table 3 hereinafter, the minimum inhibitory concentration […] in vitro against E. coli 1346 being determined using the serial dilution method in liquid medium: […]
# [2] = tested on: Citrobacter freundii 1982; experiment: MIC in vitro of a 1:4 combination of ceftriaxone with a compound of formula I (Test D); format: cell-based; details: Table 2; ceftriaxone alone (control)
# Sequence of β-lactamase (P05193 21-381): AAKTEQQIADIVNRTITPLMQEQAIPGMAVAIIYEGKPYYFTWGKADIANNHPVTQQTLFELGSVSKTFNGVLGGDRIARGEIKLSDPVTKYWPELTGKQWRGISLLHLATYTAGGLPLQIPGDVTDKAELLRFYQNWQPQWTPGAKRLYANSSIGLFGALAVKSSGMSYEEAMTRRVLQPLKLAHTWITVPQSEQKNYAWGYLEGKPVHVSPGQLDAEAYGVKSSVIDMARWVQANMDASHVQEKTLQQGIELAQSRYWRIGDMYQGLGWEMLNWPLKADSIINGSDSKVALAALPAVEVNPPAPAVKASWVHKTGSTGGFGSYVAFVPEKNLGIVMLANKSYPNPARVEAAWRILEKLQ
MIC E. coli 1346 (E) (E. coli 1346),MIC C. freundii 1982 (D) [1] [µg/mL],Compound,other results
8 µg/mL,0.5,"Cn1nnnc1SCC1=C(C(=O)O)N2C(=O)[C@@H]3[C@H]2[C@@H](CN3C(=O)Nc2ccc(C(N)=O)cc2)O1 [31(i), (1aS,3aR,6bS)-2-(4-Carbamoyl-phenylcarbamoyl)-5-(1-methyl-1H-tetrazol-5-ylsulphanylmethyl)-1-oxo-1,1a,2,3,3a,6b-hexahydro-4-oxa-2,6a-diazacyclobut[cd]indene-6-carboxylic acid sodium salt]",–
1 µg/mL,1,"Cc1nnc(SCC2=C(C(=O)O)N3C(=O)[C@H]4NC[C@@H](O2)[C@H]43)s1 [Example 29(a), (1aS,3aR,6bS)-5-(5-Methyl-1,3,4-thiadiazol-2-ylsulphanylmethyl)-1-oxo-1,1a,2,3,3a,6b-hexahydro-4-oxa-2,6a-diazacyclobut[cd]indene-6-carboxylic acid sodium salt]",–
8 µg/mL,0.5,"Cc1nnc(SCC2=C(C(=O)O)N3C(=O)[C@@H]4[C@H]3[C@@H](CN4C(=O)Nc3ccc(O)cc3)O2)s1 [Example 31(a), (1aS,3aR,6bS)-2-(4-Hydroxy-phenylcarbamoyl)-5-(5-methyl-1,3,4-thiadiazol-2-ylsulphanylmethyl)-1-oxo-1,1a,2,3,3a,6 b-hexahydro-4-oxa-2,6a-diazacyclobut[cd]indene-6-carboxylic acid sodium salt]",–
> 32 µg/mL,1,O=C(O)C1=C(CO)S[C@@H]2CN(C(=O)Nc3ccc(O)cc3)[C@@H]3C(=O)N1[C@@H]32 [41(d) Byproduct],–
2 µg/mL,4,"O=C(Cn1nnnc1SCC1=C(C(=O)O)N2C(=O)[C@H]3NC[C@@H](C1)[C@H]32)NCCc1ccccc1 [Example 79, (1aS,3aR,6bR)-1-Oxo-5-[1-(phenethylcarbamoylmethyl)-1H-tetrazol-5-ylsulphanylmethyl]-1a,2,3,3a,4,6b-hexahydro-1H-2,6a-diazacyclobut[cd]indene-6-carboxylic acid trifluoroacetate]",–
8 µg/mL,0.12,"NC(=O)OCC1=C(C(=O)O)N2C(=O)[C@@H]3[C@H]2[C@H](C1)CN3C(=O)CSc1nnc(N)s1 [58(f), (1aS,3aR,6bR)-2-(5-Amino-1,3,4-thiadiazol-2-ylsulphanylacetyl)-5-carbamoyloxymethyl-1-oxo-1a,2,3,3a,4,6b-hexahydro-1H-2,6a-diazacyclobut[cd]indene-6-carboxylic acid sodium salt]",–
8 µg/mL,0.25,"Cc1nnc(SCC(=O)N2C[C@H]3CC(COC(N)=O)=C(C(=O)O)N4C(=O)[C@@H]2[C@@H]34)s1 [Example 58(e), (1aS,3aR,6bR)-5-Carbamoyloxymethyl-2-(5-methyl-1,3,4-thiadiazol-2-ylsulphanylacetyl)-1-oxo-1a,2,3,3a,4,6b-hexahydro-1H-2,6a-diazacyclobut[cd]indene-6-carboxylic acid sodium salt]",–
2 µg/mL,0.5,"NC(=O)CNC(=O)OCC1=C(C(=O)O)N2C(=O)[C@@H]3[C@H]2[C@H](C1)CN3C(=O)C(F)(F)F [96(b), (1aS,3aR,6bR) 5-Carbamoylmethylcarbamoyloxymethyl-1-oxo-2-trifluoroacetyl-1a,2,3,3a,4,6b-hexahydro-1H-2,6a-diazacyclobut[cd]indene-6-carboxylic acid sodium salt]",–
1 µg/mL,1,"CNC(=O)Cn1nnnc1SCC1=C(C(=O)O)N2C(=O)[C@@H]3[C@H]2[C@H](C1)CN3C(=O)C(F)(F)F [74(b), (1aS,3aR,6bR)-5-(1-Methylcarbamoylmethyl-1H-tetrazol-1-ylsulphanylmethyl)-1-oxo-2-trifluoroacetyl-1a,2,3,3a,4,6b-hexahydro-1H-2,6a-diazacyclobut[cd]indene-6-carboxylic acid sodium salt]",–

# The next lines start with the compound.
Compound,MIC E. coli 1346 (E) (E. coli 1346),MIC C. freundii 1982 (D) [1] [µg/mL],other results
"(1aS,3aR,6bR)-2-[(R)- and [(S)-1,1-Dioxo-tetrahydrothien-3-ylcarbamoyl]-5-methylsulphonyloxy-1-oxo-1a,2,3,3a,4,6b-hexahydro-1H-2,6a-diazacyclobut[cd]indene-6-carboxylic acid sodium salt [9(g)]",–,–,"pIC50 (β-lactamase; Table 1, nitrocefin substrate, 15 minutes pre-incubation of β-lactamase with inhibitor, read-out: IC 50): 7.57; MIC C. freundii 1982 [1]: 0.25 µg/mL"
"(1aS,3aR,6bS)-5-(Carbamoyloxymethyl)-2-(4-hydroxyphenylcarbamoyl)-1-oxo-1,1a,2,3,3a,6b-hexahydro-4-oxa-2,6a-diazacyclobut[cd]indene-6-carboxylic acid sodium salt [31(g)]","0,5 μg/ml",16,"pIC50 (β-lactamase; Table 4, test C, nitrocefin, 15 minutes pre-incubation, read-out: IC 50 (C)): 4.29"
"CO/N=C(\C(=O)N[C@@H]1C(=O)N2C(C(=O)O)=C(CSc3nc(=O)c(=O)[nH]n3C)CS[C@H]12)c1csc(N)n1 [Ceftriaxone, ceftriaxone]",–,–,MIC C. freundii 1982 [2]: 128 µg/mL
"Cn1nnnc1SCC1=C(C(=O)O)N2C(=O)[C@@H]3[C@H]2[C@H](C1)CN3C(=O)Nc1ccc(O)cc1 [18(a), (1aS,3aR,6bR)-2-(4-Hydroxy-phenylcarbamoyl)-5-(1-methyl-1H-tetrazol-5-ylsulphanylmethyl)-1-oxo-1a,2,3,3a,4,6b-hexahydro-1H-2,6a-diazacyclobut[cd]indene-6-carboxylic acid sodium salt]",–,–,MIC E. coli 1346 (E. coli 1346): 32 µg/mL; MIC C. freundii 1982 [1]: 0.25 µg/mL
"O=C([O-])C1=C(C[n+]2ccccc2)C[C@@H]2CN[C@@H]3C(=O)N1[C@H]23 [Example 22, (1aS,3aR,6bR)-1-Oxo-5-(pyridin-1-yliomethyl)-1a,2,3,3a,4,6b-hexahydro-1H-2,6a-diazacyclobut[cd]indene-6-carboxylate trifluoroacetate]",–,–,MIC E. coli 1346 (E. coli 1346): 4 µg/mL; MIC C. freundii 1982 [1]: 4 µg/mL
"O=C(O)C1=C(Sc2ccncc2)C[C@@H]2CN[C@@H]3C(=O)N1[C@H]23 [Example 2(d), (1aS,3aR,6bR)-1-oxo-5-(pyridin-4-ylsulphanyl)-1a,2,3,3a,4,6b-hexahydro-1H-2,6a-diazacyclobut[cd]indene-6-carboxylic acid trifluoroacetate]",> 32 µg/mL,64,–
"Cn1nnnc1SC1=C(C(=O)O)N2C(=O)[C@@H]3[C@H]2[C@H](C1)CN3C(=O)NCc1ccc(S(N)(=O)=O)cc1 [3(g), (1aS,3aR,6bR)-5-(1-Methyl-1H-tetrazol-5-ylsulphanyl)-1-oxo-2-(4-sulphamoyl-benzylcarbamoyl)-1a,2,3,3a,4,6b-hexahydro-1H-2,6a-diazacyclobut[cd]indene-6-carboxylic acid sodium salt]",–,–,MIC E. coli 1346 (E. coli 1346): 16 µg/mL; MIC C. freundii 1982 [1]: 0.5 µg/mL
"Cn1nnnc1SCC1=C(C(=O)O)N2C(=O)[C@@H]3[C@H]2[C@H](C1)CN3C(=O)N[C@H]1CCNC1=O [18(c), (1aS,3aR,6bR)-2-[(S)-2-Oxo-pyrrolidin-3-ylcarbamoyl)-5-(1-methyl-1H-tetrazol-5-ylsulphanylmethyl]-1-oxo-1a,2,3,3a,4,6b-hexahydro-1H-2,6a-diazacyclobut[cd]indene-6-carboxylic acid sodium salt]",–,–,MIC E. coli 1346 (E. coli 1346): 32 µg/mL; MIC C. freundii 1982 [1]: 0.25 µg/mL
